# Literature values in patent US6972278B2, “Laundry detergent gel with suspended particles” (Unilever Home & Personal Care USA division of Conopco, Inc., priority 2004, dated 2005).
# Conditions: by fatty acid chain length; cited from Langmuir, Vol 16, pp 172-177, 2000
row,Structure (SMILES),Measured pKa value
1,CCCCCCCCCCCCCCCC(=O)O [Example 16],8.6~8.8
2,CCCCCCCCCCCC(=O)O [Example 12],~7.5
3,CCCCCCCCCC(=O)O [Example 10],7.1~7.3
4,CCCCCCCCCCCCCC(=O)O [Example 14],8.1~8.2
5,CCCCCCCC(=O)O [Example 8],6.3~6.5

# Same assay, conditions: by fatty acid chain length; cited from Proc. R. Soc. London, A133, 140, 1931
row,Structure (SMILES),Measured pKa value
1,CCCCCCCCCCCCCCCC(=O)O [Example 16],8.5
